Source: patent US11597724B2, “Herbicidally active 3-phenylisoxazoline-5-carboxamides of tetrahydro and dihydrofuran carboxylic acids and esters” (Bayer Aktiengesellschaft, priority 2017, dated 2023)

Legend:
Assay type in all cases: in vivo
Polygonum convolvulus = experiment: Post-emergence herbicidal activity against POLCO; details: dosage 320 g/ha, rated about 3 weeks after treatment; for pest or weed control at 320 g/ha: Fallopia convolvulus, 504 h
Outline: (§1)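 Greenhouse weeds in sandy loam were sprayed at the one-leaf stage, 2–3 weeks after sowing, with WP or EC formulations plus 0.5% additive at 600 l/ha water. About 3 weeks later, damage was rated visually against untreated controls, where 100% means plants dead and 0% means like control.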

Abutilon theophrasti = experiment: Post-emergence herbicidal activity against ABUTH; details: dosage 320 g/ha, rated about 3 weeks after treatment; for pest or weed control at 320 g/ha: Abutilon theophrasti, 504 h
Outline: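 Greenhouse-grown plants treated at one-leaf stage, 2 to 3 weeks after sowing, with WP or EC formulations sprayed as aqueous suspension/emulsion plus 0.5% additive at 600 l/ha. Activity rated visually about 3 weeks later versus untreated controls (100% = plants dead, 0% = like control).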

Setaria viridis = experiment: Post-emergence herbicidal activity against SETVI; details: dosage 320 g/ha, rated about 3 weeks after treatment; for pest or weed control at 320 g/ha: Setaria viridis, 504 h
Outline: as §1

Veronica persica = experiment: Pre-emergence herbicidal activity against VERPE; details: dosage 80 g/ha; for pest or weed control at 80 g/ha: Veronica persica, 504 h
Excerpt: (§2) 1. Pre-Emergence Herbicidal Action and Crop Plant Compatibility Seeds of monocotyledonous and dicotyledonous weed plants and crop plants are placed in plastic or wood fiber pots and covered with soil. The compounds of the invention, formulated in the form of wettable powders (WP) or as emulsion concentrates (EC), are then applied onto the surface of the covering soil as aqueous suspension or emulsion with addition of 0.5% additive at a water application rate of 600 l/ha (converted). After the treatment, the pots are placed in a greenhouse and kept under good growth conditions for the trial plants. After about 3 weeks, the effect of the preparations is scored visually in comparison with untreated controls as percentages. For example, 100% activity=the plants have died, 0% activity=like control plants. STEME: Stellaria media VERPE: Veronica persica

Stellaria media = experiment: Pre-emergence herbicidal activity against STEME; details: dosage 80 g/ha; for pest or weed control at 80 g/ha: Stellaria media, 504 h
Excerpt: as §2

Lolium rigidum = experiment: Post-emergence herbicidal activity against LOLRI; details: dosage 320 g/ha, rated about 3 weeks after treatment; for pest or weed control at 320 g/ha: Lolium rigidum, 504 h
Outline: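 Greenhouse-grown plants sprayed post-emergence at the one-leaf stage, 2 to 3 weeks after sowing, with WP or EC formulations plus 0.5% additive at 600 l/ha water. Activity rated visually after about 3 weeks versus untreated controls (100% = plants dead, 0% = like control).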

Echinochloa crus-galli = experiment: Post-emergence herbicidal activity against ECHCG; details: dosage 320 g/ha, rated about 3 weeks after treatment; for pest or weed control at 320 g/ha: Echinochloa crus-galli, 504 h
Outline: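 Greenhouse pot plants sprayed post-emergence at one-leaf stage (2-3 weeks after sowing) with WP or EC formulations, 0.5% additive, 600 l/ha water. Visual rating about 3 weeks later versus untreated controls: 100% = plants dead, 0% = like control.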

[1] = Post-emergence treatment, summary over harmful plants; details: 504 h, application rate of 0.32 kg of active substance or less per hectare, read-out: herbicidal action, post-emergence treatment (very good herbicidal activity)
Outline: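 Greenhouse-grown weeds and crops were sprayed at the one-leaf stage (2–3 weeks post-sowing) with WP or EC formulations plus 0.5% additive at 600 l/ha water. About 3 weeks later, activity was visually rated against untreated controls (100% = dead plants, 0% = like control).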

Structure (SMILES)	Post-emergence herbicidal activity against POLCO in % (Polygonum convolvulus)	Post-emergence herbicidal activity against ABUTH in % (Abutilon theophrasti)	Post-emergence herbicidal activity against SETVI in % (Setaria viridis)	Pre-emergence herbicidal activity against VERPE in % (Veronica persica)	Pre-emergence herbicidal activity against STEME in % (Stellaria media)	Post-emergence herbicidal activity against LOLRI in % (Lolium rigidum)	Post-emergence herbicidal activity against ECHCG in % (Echinochloa crus-galli)	pest or weed control at 320 g/ha (Polygonum convolvulus)	pest or weed control at 320 g/ha (Abutilon theophrasti)	pest or weed control at 320 g/ha (Setaria viridis)	pest or weed control at 80 g/ha (Veronica persica)	pest or weed control at 80 g/ha (Stellaria media)	pest or weed control at 320 g/ha [1]	pest or weed control at 320 g/ha (Echinochloa crus-galli)	pest or weed control at 320 g/ha (Lolium rigidum)
CC(C)OC(=O)C1CC(NC(=O)C2(C)CC(c3cc(F)cc(F)c3)=NO2)CO1 (centres unmarked) [I-44]	80%	80%	90%	80%	90%	100%	100%	–	–	–	–	–	–	–	–
COC(=O)[C@H]1C[C@@H](NC(=O)C2(C)CC(c3cc(F)cc(F)c3)=NO2)CO1 (relative stereo) [I-01, methyl cis-4-[[3-(3,5-difluorophenyl)-5-methyl-4H-isoxazole-5-carbonyl]amino]tetrahydrofuran-2-carboxylate]	–	–	–	–	–	–	–	80%	80%	90%	80%	90%	80 to 100%	90%	–
CC(C)(C)OC(=O)[C@H]1C[C@@H](NC(=O)C2(C)CC(c3cccc(F)c3)=NO2)CO1 (mixture of isomers) [I-33, tert-butyl cis-4-[[(5RS)-3-(3-fluorophenyl)-5-methyl-4H-isoxazole-5-carbonyl]amino]tetrahydrofuran-2-carboxylate]	–	–	–	–	–	–	–	80%	–	90%	100%	100%	80 to 100%	80%	100%
COC(=O)C1CC(NC(=O)C2(C)CC(c3cc(F)cc(F)c3)=NO2)CO1 (mixture of isomers) [I-48]	80%	80%	80%	100%	100%	90%	90%	–	–	–	–	–	–	–	–
COC(=O)C1COCC1NC(=O)[C@@]1(C)CC(c2cc(F)cc(F)c2)=NO1 (stereo partly drawn) [I-28, methyl 4-[[(5R)-3-(3,5-difluorophenyl)-5-methyl-4H-isoxazole-5-carbonyl]amino]tetrahydrofuran-3-carboxylate]	–	–	–	–	–	–	–	80%	80%	80%	90%	100%	80 to 100%	80%	–
COC(=O)[C@H]1C[C@@H](NC(=O)[C@@]2(C)CC(c3cc(F)cc(F)c3)=NO2)CO1 (mixture of isomers) [I-09, methyl cis-4-[[(5R)-3-(3,5-difluorophenyl)-5-methyl-4H-isoxazole-5-carbonyl]amino]tetrahydrofuran-2-carboxylate]	–	–	–	–	–	–	–	80%	–	80%	90%	–	80 to 100%	80%	–
C=C[C@]1(C(=O)N[C@H]2CO[C@@H](C(=O)OC)C2)CC(c2cc(F)cc(F)c2)=NO1 (single isomer, unassigned) [I-11]	–	–	–	100%	100%	–	–	90%	90%	90%	–	–	–	90%	100%
CCOC(=O)C1CC(NC(=O)C2(C)CC(c3cc(F)cc(F)c3)=NO2)CO1 (mixture of isomers) [I-43]	80%	80%	80%	90%	100%	100%	100%	–	–	–	–	–	–	–	–
C=C[C@]1(C(=O)NC2COCC2C(=O)OC)CC(c2cc(F)cc(F)c2)=NO1 (stereo partly drawn) [I-26, methyl 4-[[(5S)-3-(3,5-difluorophenyl)-5-vinyl-4H-isoxazole-5-carbonyl]amino]tetrahydrofuran-3-carboxylate]	–	–	–	–	–	–	–	–	–	80%	100%	100%	80 to 100%	90%	–
COC(=O)C1CC(NC(=O)C2(C(C)(F)F)CC(c3cc(F)cc(F)c3)=NO2)CO1 (centres unmarked) [I-49]	80%	–	–	100%	100%	90%	80%	–	–	–	–	–	–	–	–
COC(=O)C1COCC1NC(=O)C1(OC)CC(c2cc(F)cc(F)c2)=NO1 (centres unmarked) [I-27, methyl 4-[[3-(3,5-difluorophenyl)-5-methoxy-4H-isoxazole-5-carbonyl]amino]tetrahydrofuran-3-carboxylate]	–	–	–	–	–	–	–	80%	–	80%	90%	90%	80 to 100%	–	–
C=CC1(C(=O)N[C@H]2CO[C@@H](C(=O)O)C2)CC(c2cc(F)cc(F)c2)=NO1 (relative stereo) [I-21, cis-4-[[3-(3,5-difluorophenyl)-5-vinyl-4H-isoxazole-5-carbonyl]amino]tetrahydrofuran-2-carboxylic acid]	–	–	–	–	–	–	–	–	–	80%	100%	100%	80 to 100%	80%	–
CC(C)(C)OC(=O)C1CC(NC(=O)C2(C)CC(c3cc(F)cc(F)c3)=NO2)CO1 (mixture of isomers) [I-42]	80%	80%	90%	90%	100%	100%	100%	–	–	–	–	–	–	–	–
COC(=O)C1COCC1NC(=O)C1(OC)CC(c2cc(Cl)cc(Cl)c2)=NO1 (centres unmarked) [I-29, methyl 4-[[3-(3,5-dichlorophenyl)-5-methoxy-4H-isoxazole-5-carbonyl]amino]tetrahydrofuran-3-carboxylate]	–	–	–	–	–	–	–	80%	80%	80%	100%	90%	80 to 100%	90%	–
CC1(C(=O)NC2COC(C(=O)OCc3ccccc3)C2)CC(c2cc(F)cc(F)c2)=NO1 (mixture of isomers) [I-45]	80%	80%	90%	80%	100%	100%	100%	–	–	–	–	–	–	–	–
COC(=O)[C@H]1C[C@@H](NC(=O)C2(OC)CC(c3cc(C)cc(Br)c3)=NO2)CO1 (relative stereo) [I-08, methyl cis-4-[[3-(3-bromo-5-methylphenyl)-5-methoxy-4H-isoxazole-5-carbonyl]amino]tetrahydrofuran-2-carboxylate]	–	–	–	–	–	–	–	80%	–	80%	90%	–	80 to 100%	90%	–
COC(=O)C1COCC1NC(=O)C1(C)CC(c2cc(F)cc(F)c2)=NO1 (centres unmarked) [I-19, methyl 4-[[3-(3,5-difluorophenyl)-5-methyl-4H-isoxazole-5-carbonyl]amino]tetrahydrofuran-3-carboxylate]	–	–	–	–	–	–	–	80%	80%	80%	90%	80%	80 to 100%	90%	–
